Literature values, collected in patent US9801874B2, “Method for the preparation of liposome encapsulated vincristine for therapeutic use” (Spectrum Pharmaceuticals, Inc., priority 2012, dated 2017).
Structures can show the parent of a compound that is named as a salt.

Settings: 1:1 sulfate salt, crystalline powder

In the case of CCC12C=CCN3CC[C@@]4(c5cc([C@@]6(C(=O)OC)CC7CN(CCc8c6[nH]c6ccccc86)C[C@](O)(CC)C7)c(OC)cc5N(C=O)[C@H]4[C@@](O)(C(=O)OC)C1OC(C)=O)C32 (stereo partly shown) [Vincristine sulfate, 22-oxovincaleukoblastine], the solubility in water is listed as “soluble in water”.
